Data reported in article PMC11555231 (Nature Communications, 2024).
Read-outs that look alike come from different tables or passages of the source. Bridge positions count the residues as written; N and C are the ends. Square brackets hold non-standard residues; d marks the D form. Peptide text beside a SMILES is read from it. Cit = NC(=O)NCCC[C@H](N)C(=O)O

Tests used:
[1] = system: human neutrophils; assay: Time-lapse imaging and NET quantification (NETosis); format: cell-based
Method: Peripheral venous blood was isolated from consenting healthy adult volunteers in heparin tubes as previously described. Briefly, blood samples were on Histopaque 1119 (Sigma-Aldrich) and then centrifuged for 20 min at 800 × g. The plasma was collected and centrifuged for a second time for 20 min at 800 × g. The neutrophil layer was collected and washed in Hyclone Hank’s Balanced Salt Solution (HBSS) -Ca, -Mg, -Phenol red (GE Healthcare) supplemented with 10 mM HEPES (Invitrogen) 0.1% FBS and further purified with a discontinuous Percoll (GE Healthcare) gradient consisting of layers with densities of 85, 80, 75, 70 and 65% and centrifuged for 20 min at 800 × g. Neutrophil-enriched layers were then collected and washed, and neutrophil purity was assessed using flow cytometry.
About 5 × 10^4 human neutrophils were seeded in a black 96-well plate (PerkinElmer) in HyClone HBSS +Ca, +Mg, - Phenol red (GE Healthcare) containing 10 mM HEPES (Invitrogen). Cells were pre-incubated with the corresponding peptide for 60 min prior to the start of the experiment. DNA of live cells was stained with 4 µg/mL Hoechst (membrane permeable; Thermo Scientific) and DNA from dead cells with 0.2 µM Sytox-green (membrane impermeable; Invitrogen). Cells were stimulated with 100 nM PMA, 5 µM Ca-Ionophore or 0.1 mg/mL cholesterol crystals at the start of the microscope acquisition. Plates stimulated with cholesterol crystals were centrifuged at 300×g for 5 min at RT immediately prior to microscope acquisition. The cells were imaged on an inverted Nikon wide-field microscope system at 37 °C and CO2 (5%). Four fields of view were acquired per well every 15 mins for 10–15 h using a 40x objective. NETs were differentiated from necrotic cells by the size of the sytox signal using FIJI[86]. […] [85]. Area measurements were distributed into bins of increasing area sizes and plotted as a percentage of the total number of Sytox-green positive (dead) cells.

[2] = molecular target: T1, Bio-hPADI4 wt (Homo sapiens, UniProt Q9UM07); assay: Surface plasmon resonance (SPR), single cycle kinetics, peptide binding to immobilised PADI4
T1 construct: PADI4 (residues 1–663); Avi-Tag (biotinylated by BirA); made in house; host or cells: E. coli BL21-DE3 co-expressing BirA
Method: Single cycle kinetics analysis by SPR was carried out using a Biacore T200 or S200 and a Biotin CAPture kit, series S (Cytiva). […] 50 mM HEPES (pH 7.5), 150 mM NaCl, 2 mM DTT, 0.05 % Tween-20, 0.1% DMSO and variable CaCl2 (as specified) was used as the running buffer and experiments performed at 25 °C.
Samples were run with 120 s contact time, and variable dissociation time (often 360 s). Data were analysed using the Biacore T200 analysis software; data was fitted to a 1:1 binding model accounting for baseline drift where necessary. Data are presented as the average ± standard deviation of at least two independent replicates.

[3] = molecular target: T2, hPADI4 (Homo sapiens, UniProt Q9UM07); assay: COLDER assay, inhibition of PADI4 at 10 mM CaCl2 (substrate BAEE); format: biochemical; conditions: average of 3 replicates (Stdev in separate column); COLDER assay, 10 mM CaCl2, substrate BAEE; source data of Figure 2F; read-out: IC50s Average
T2 construct: PADI4 (residues 1–663); Avi-Tag (unbiotinylated); made in house; host or cells: E. coli BL21(DE3) without BirA
Method: PADI4 activity was assessed using the COLDER assay[43] that measures the formation of urea-containing compounds (e.g. citrulline). The reaction was carried out in a 96-well plate with a final volume of 50 µl. His-PADI4 (50 nM) was incubated with different concentrations of peptides (100 µM to 0.3 nM) in the presence of CaCl2 (from 10 mM to 0.001 mM as specified) for 10 min. The reaction was started by the addition of 10 mM N^α-Benzoyl-L-arginine ethyl ester hydrochloride (BAEE, Merck). After 30 min, the reaction was quenched with EDTA (50 mM final concentration). For colour development, 200 µl of COLDER solution, consisting of 1 volume of solution A (80 mM diacetyl monoxime/2,3-butanedione monoxime (Merck) and 2 mM thiosemicarbazide (Acros Organics)) and 3 volumes of solution B (3 M H3PO4, 6 M H2SO4 and 2 mM NH4Fe(SO4)2) were added to each well and the mixture was heated at 95 °C for 15 min. After cooling to RT, absorbance at 540 nm was measured, and citrulline concentration was determined using a standard curve of citrulline standards. All studies were performed within the linear range of PADI4 activity, and data analysis was performed using Prism GraphPad (Dotmatics). Data are presented as the average ± standard error of the mean from at least two independent replicates.

T1 sequence (Q9UM07 whole entry, the tested form may be a part): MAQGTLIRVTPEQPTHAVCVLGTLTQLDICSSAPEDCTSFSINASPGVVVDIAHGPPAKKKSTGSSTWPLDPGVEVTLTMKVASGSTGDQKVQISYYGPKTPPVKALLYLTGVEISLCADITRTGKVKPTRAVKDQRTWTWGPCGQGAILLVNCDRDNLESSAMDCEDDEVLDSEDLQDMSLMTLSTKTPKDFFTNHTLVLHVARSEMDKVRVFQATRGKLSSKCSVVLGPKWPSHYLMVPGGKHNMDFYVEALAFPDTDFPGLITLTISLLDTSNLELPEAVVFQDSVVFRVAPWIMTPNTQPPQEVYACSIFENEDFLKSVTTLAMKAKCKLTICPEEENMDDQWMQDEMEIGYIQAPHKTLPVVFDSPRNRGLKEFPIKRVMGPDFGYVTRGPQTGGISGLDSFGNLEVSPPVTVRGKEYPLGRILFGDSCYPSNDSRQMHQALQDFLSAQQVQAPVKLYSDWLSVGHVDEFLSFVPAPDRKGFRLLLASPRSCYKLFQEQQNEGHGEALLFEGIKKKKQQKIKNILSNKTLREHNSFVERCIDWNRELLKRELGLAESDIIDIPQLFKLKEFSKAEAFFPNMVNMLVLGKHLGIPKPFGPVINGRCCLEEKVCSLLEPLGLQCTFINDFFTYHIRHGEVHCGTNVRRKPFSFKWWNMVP
T2 sequence (Q9UM07 whole entry, the tested form may be a part): as above

With N=C(N)NCCC[C@@H]1NC(=O)[C@H](Cc2ccc(O)cc2)NC(=O)[C@H](Cc2c[nH]cn2)NC(=O)[C@H](Cc2c[nH]cn2)NC(=O)[C@H](CC(=O)O)NC(=O)[C@H](CCCNC(=N)N)NC(=O)[C@@H](Cc2ccc(O)cc2)NC(=O)CSC[C@@H](C(=O)NCC(N)=O)NC(=O)[C@H](Cc2ccc(O)cc2)NC(=O)[C@H](CCCCN)NC(=O)[C@@H]2CCCN2C(=O)[C@H](Cc2c[nH]cn2)NC1=O [PAD4-3] ({CH2CO}-[dY]RDHHYRHPKYCG-NH2; thioether N-12) the “share per DNA area bin” value ([1]; DNA area (μm) 150, replicate 1) was 61.7647, the “share per DNA area bin” value ([1]; DNA area (μm) 150, replicate 2) was 57.1429 and the “share per DNA area bin” value ([1]; DNA area (μm) 150, replicate 3) was 62.8571. For the same compound, the “share per DNA area bin” value ([1]; DNA area (μm) 150, replicate 4) was 54.7619, the “share per DNA area bin” value ([1]; DNA area (μm) 250, replicate 1) was 14.7059 and the “share per DNA area bin” value ([1]; DNA area (μm) 250, replicate 2) was 5.7143. For the same compound, the “share per DNA area bin” value ([1]; DNA area (μm) 250, replicate 3) was 5.7143, the “share per DNA area bin” value ([1]; DNA area (μm) 250, replicate 4) was 21.4286 and the “share per DNA area bin” value ([1]; DNA area (μm) 750, replicate 1) was 23.5294. For the same compound, the “share per DNA area bin” value ([1]; DNA area (μm) 750, replicate 2) was 37.1429, the “share per DNA area bin” value ([1]; DNA area (μm) 750, replicate 3) was 31.4286 and the “share per DNA area bin” value ([1]; DNA area (μm) 750, replicate 4) was 23.8095. The “share per DNA area bin” value ([1]; DNA area (μm) 1500, replicate 1) was 0, the “share per DNA area bin” value ([1]; DNA area (μm) 1500, replicate 2) was 0 and the “share per DNA area bin” value ([1]; DNA area (μm) 1500, replicate 3) was 0. For the same compound, the “share per DNA area bin” value ([1]; DNA area (μm) 1500, replicate 4) was 0.
CC[C@H](C)[C@@H]1NC(=O)[C@H](CC(C)C)NC(=O)[C@H](Cc2c[nH]c3ccccc23)NC(=O)[C@@H]2CCCN2C(=O)[C@H]([C@@H](C)O)NC(=O)[C@H](C)NC(=O)[C@@H](Cc2ccc(O)cc2)NC(=O)CSC[C@@H](C(=O)NCC(N)=O)NC(=O)[C@H](CC(C)C)NC(=O)[C@H](C(C)C)NC(=O)[C@H](C(C)C)NC1=O [PADI4_5] ({CH2CO}-[dY]ATPWLIVVLCG-NH2; thioether N-11) was tested, and the Kd ([2]; 0 mM CaCl2, 25 °C, read-out: KD 0 mM CaCl2, bound printed in µM) was over 2 µM, the Kd ([2]; 10 mM CaCl2, PADI4 active site blocked with Cl-amidine, 25 °C, read-out: KD 10 mM CaCl2 + Cl-amidine, bound given in µM) was over 2 µM and the Kd ([2]; 10 mM CaCl2 in running buffer, 25 °C, read-out: KD 10 mM CaCl2, bound printed in µM) was over 2 µM.
Work on N=C(N)NCCC[C@@H]1NC(=O)[C@@H](Cc2ccc(O)cc2)NC(=O)CSC[C@@H](C(=O)NCC(N)=O)NC(=O)[C@H](Cc2ccc(O)cc2)NC(=O)[C@H](CCCCN)NC(=O)[C@@H]2CCCN2C(=O)[C@H](Cc2c[nH]cn2)NC(=O)[C@H](CCCNC(N)=O)NC(=O)[C@H](Cc2ccc(O)cc2)NC(=O)[C@H](Cc2c[nH]cn2)NC(=O)[C@H](Cc2c[nH]cn2)NC(=O)[C@H](CC(=O)O)NC1=O [PADI4_3.R7Cit] ({CH2CO}-[dY]RDHHY[Cit]HPKYCG-NH2; thioether N-12) yielded an IC50 [3] of 83.2 nM.
